Reference: patent US8759372B2, “N-(5S,6S,9R)-amino-6-(2,3-difluorophenyl)-6,7,8,9-tetrahydro-5H-ctclohepta[b]Pyridin-9-yl-4-(2-oxo-2,3-dihydro-1H-imidazo[4,5-b]pyridin-1-carboxylate salt” (Bristol-Myers Squibb Company, priority 2012, dated 2014)
Counter-ions that a name gives are not always drawn. Like-named read-outs stand apart in the source and are kept apart here.

Columns and labels:
[1] = In vivo pharmacokinetic study in humans with and without famotidine pretreatment; conditions: for AUC(0-inf) / Cmax / half-life / Tmax: human, plasma; for AUC(0-inf) / Cmax / half-life / Cl/F: (%); for Tmax: read-out: Tmax Median
Procedure: An in vivo study was conducted comparing the pharmacokinetics of the free base Compound (I) in humans pretreated with 40 mg of famotidine with non-pretreated humans.
Compound (I) in human EDTA plasma was analyzed using liquid-liquid extraction with uHPLC-MS/MS detection on a Triple Quad 5500 mass spectrometer. The method utilized stable isotope labeled [^13C2, D4]-Compound (I) as the internal standard. After the addition of 50 μL of 100 ng/mL [^13C2, D4]-Compound (I) in MeOH:water (20/80) and of 50 μL 1M NH4OAc containing 4% acetic acid buffer solution to 0.100 mL of each study sample, quality control (QC) sample, and calibration standard, the samples were extracted with 600 μL methyl tert-butyl ether (MTBE) by shaking for 15 min. A 450 μL portion of the organic layer was removed and evaporated to dryness. The residue was reconstituted in 200 μL of the reconstitution solution (30% acetonitrile in 10 mM NH4OAc with 0.01% acetic acid). All liquid transfer steps were performed using a Perkin Elmer JANUS Mini® liquid handler except for the addition of the internal standard solution. A 10 μL aliquot of the extracted sample was injected to uHPLC-MS/MS system. The uHPLC was performed on a LEAP 4X Ultra uHPLC system with LEAP HTC PAL autosampler. Mobile phase A contained 10 mM NH4OAc and 0.01% acetic acid in ACN/water (10:90), and mobile phase B contained 10 mM NH4OAc and 0.01% acetic acid in ACN/water (90:10). Chromatographic separation was achieved on an Acquity® uHPLC BEH C18 column (1.7 μm, 2.1×50 mm) with an isocratic elution from 0-1.5 min consisted of 28% Mobile Phase B for analysis of Compound (I), then with a gradient elution consisted of a linear increase from 28% B to 100% B in 0.1 min, then maintaining it at 100% B for 1.1 min for washing out the column. The gradient was then returned to 28% B within 0.1 min, and maintained at 28% for 0.9 min with a total run time of 3.7 min. The flow rate was 0.6 mL/min and column temperature was maintained at 60° C. condition. Detection was accomplished using an AB Sciex Triple Quad 5500 mass spectrometer in positive ESI with turbo ion spray ionization and using multiple reaction monitoring (MRM) mode. The MRM transitions were m/z 535→256 for Compound (I) and m/z 541→256 for [^13C2, D4]-Compound (I). Data acquisition and quantiation were performed using AB Sciex Analyst® 1.5.1 software. The standard curve, which ranged from 0.500-500 ng/ml for Compound (I), was fitted to a 1/x2 weighted linear regression model. During sample analysis, four levels of analytical quality control (QC) samples representing low, geometric-mean, medium, and high concentrations of Compound (I) prepared in human EDTA plasma were analyzed in 4 replicates at each concentration level for each analytical run. The results from these QC samples were used to accept or reject the analytical runs containing study samples based on the acceptance criteria established a priori for the analysis of Compound (I) in human EDTA plasma.

[2] = Dissolution rate in aqueous medium; type: physicochemical; conditions: pH 1 and 5 versus pH 7
Excerpt: The dissolution rate of Compound (I) is dependent on the pH of the aqueous medium. […] The normal pH of the stomach is 1.2 to 1.8 according to […], Clinical Analysis, Chapter 32, in Remington: The Science and Practice of Pharmacy 20th Edition, A. R. Gennaro, editor; 2000, Lippinocott Williams & Wilkins, Baltimore, Md. However, patients often take other medications that can raise the pH of the stomach, including antacids, proton pump inhibitors, and H2-receptor antagonists such as famotidine, which can lower the dissolution rate of Compound (I).

[3] = Water activity studies between crystalline forms; type: physicochemical
Procedure: Form P22C: prepared by heating Form H1.5-1 at 60° C. for 2 hours or at 75° C. for 5 minutes.
Form P33: Form H1.5-1 converted to Form P33 between 50° C. and 75° C. in variable temperature PXRD experiment. Also observed after Form H1.5-1 was heated to 105° C. for 5 minutes, or prepared by slurring dry powder Form H1.5-1 in dry EtOH or IPAc. […] Form P35: Prepared from slurry of Form H1.5-1 in dry MeOH under molecular sieves (7% RH). Converted to Form P33 when dried at 60° C. Stability in Water Slurry

[4] = Solid state stability study; type: physicochemical
Procedure: The solid state stability of Example 1 was tested by exposing samples to various temperature and relative humidity conditions for periods of 1, 2, and 4 weeks.

[5] = Stability in water slurry; type: physicochemical; conditions: room temperature, two days
Procedure: An aqueous slurry of Example 1 was prepared and stored at room temperature.

[6] = Moisture sorption isotherm; type: physicochemical; conditions: for moisture sorption weight gain: 25° C.
Procedure: Example 1 has moisture sorption weight gains of 0.8 weight % and 2.8 weight % between 25% and 75% relative humidity and 5% and 95% relative humidity, respectively.
Moisture sorption isotherms were collected in a VTI SGA-100 Symmetric Vapor Analyzer using approximately 10 mg of sample. The sample was dried at 60° C. until the loss rate of 0.0005 wt %/min was obtained for 10 minutes. The sample was tested at 25° C. and 3 or 4, 5, 15, 25, 35, 45, 50, 65, 75, 85, and 95% RH. Equilibration at each RH was reached when the rate of 0.0003 wt %/min for 35 minutes was achieved or a maximum of 600 minutes.

[7] = Salt screen and crystalline salt characterization; type: physicochemical; conditions: for hygroscopicity: ambient temperature and relative humidity conditions, Hemisulfate Salt
Procedure: High throughput crystallization was employed to screen for the formation of crystalline salts of Compound (I). The screening examined acid type, acid level (equivalents), and/or type of crystallization solvent. Each plate contained 96 well plates (8 rows of 12 columns per plate).
A solution was prepared by dissolving 400 mg of Compound (I) in a mixture of 36 ml THF and 4 mL H2O. The solution ([…]) was transferred to 24 vials. To each vial was added 0.25 M EtOH stock solutions of the following acids:
The content of each vial was transferred to 12 crystallization wells and evaporated to dryness. Upon evaporation, each well was charged with 100 μl of solvent using a robotic liquid handler. The following crystallization solvents were tested: methyl isobutyl ketone (MIBK), ethyl acetate, toluene, THF, acetonitrile, acetone, isopropanol, ethanol, methanol, 1,2-dichloroethylene, isopropanol/water (50:50), and water. Next, the plates were sealed with Teflon septa and subjected to temperature cycling. The plates were maintained at 50° C. for 10 hours and then allowed to cool to room temperature over a period of 14 hours. After the heating/cooling cycle, the contents of the wells were characterized by birefringent imaging. Perceived crystalline hits were further characterized by PXRD analysis.

[8] = humans, 150 mg Compound (I) oral with 40 mg Famotidine pretreatment
[9] = humans, 150 mg Compound (I) oral, no pretreatment
[10] = humans, 150 mg with 40 mg Famotidine relative to no pretreatment
[11] = 25 RH/60° C. (first line, r9), 2 weeks
[12] = 25 RH/60° C. (first line, r9), 4 weeks
[13] = 25 RH/60° C. (first of three lines printed alike, r9), 1 week
[14] = 25 RH/60° C. (second line, r11), 1 week
[15] = 25 RH/60° C. (second line, r11), 2 weeks
[16] = 25 RH/60° C. (second line, r11), 4 weeks
[17] = 25 RH/60° C. (third line, r13), 1 week
[18] = 25 RH/60° C. (third line, r13), 2 weeks
[19] = 25 RH/60° C. (third line, r13), 4 weeks
[20] = HIL/UV (high-intensity light/ultraviolet), 1 week
[21] = HIL/UV (high-intensity light/ultraviolet), 2 weeks

N[C@@H]1c2cccnc2[C@H](OC(=O)N2CCC(n3c(=O)[nH]c4ncccc43)CC2)CC[C@H]1c1cccc(F)c1F [Compound (I), (5S,6S,9R)-5-amino-6-(2,3-difluorophenyl)-6,7,8,9-tetrahydro-5H-cyclohepta[b]pyridin-9-yl-4-(2-oxo-2,3-dihydro-1H-imidazo[4,5-b]pyridin-1-yl)piperidine-1-carboxylate]
AUC(0-inf) [1, 8]: 3060 ng·h/mL
Cmax [1, 8]: 259 ng/mL
half-life [1, 8]: 12.6 h
Tmax [1, 8]: 3 h
AUC(0-inf) [1, 9]: 7200 ng·h/mL
Cmax [1, 9]: 991 ng/mL
half-life [1, 9]: 12 h
Tmax [1, 9]: 2.5 h
change in AUC and Cmax ([1]; humans pretreated with 40 mg of famotidine compared to non-pretreated humans): significant reduction
Cl/F [1, 8]: 49 (28%) L/hr
Cl/F [1, 9]: 20.84 (75%) L/hr
F (AUCinf) [1, 10]: 42.5% (96%)
F (Cmax) [1, 10]: 26.2% (130%)
dissolution rate [2]: higher dissolution rate at pH values of 1 and 5 than at a pH value of 7

N[C@@H]1c2cccnc2[C@H](OC(=O)N2CCC(n3c(=O)[nH]c4ncccc43)CC2)CC[C@H]1c1cccc(F)c1F [Example 1, (5S,6S,9R)-5-Amino-6-(2,3-difluorophenyl)-6,7,8,9-tetrahydro-5H-cyclohepta[b]pyridin-9-yl-4-(2-oxo-2,3-dihydro-1H-imidazo[4,5-b]pyridin-1-yl) piperidine-1-carboxylate, Hemisulfate Salt]
relative stability of crystalline forms ([3]; Form H1.5-1 versus Form P22C): more stable at >23% relative humidity
relative stability of crystalline forms ([3]; Form H1.5-1 versus Form P33): more stable at >23% relative humidity
% potency [4, 11]: 96.8%
% total impurities [4, 11]: 0.27%
% potency [4, 12]: 96.9%
% total impurities [4, 12]: 0.27%
% potency [4, 13]: 94.4%
% total impurities [4, 13]: 0.27%
% potency [4, 14]: 95.1%
% total impurities [4, 14]: 0.27%
% potency [4, 15]: 98.5%
% total impurities [4, 15]: 0.27%
% potency [4, 16]: 97.0%
% total impurities [4, 16]: 0.27%
% potency [4, 17]: 101.6%
% total impurities [4, 17]: 0.28%
% potency [4, 18]: 102.6%
% total impurities [4, 18]: 0.27%
% potency [4, 19]: 110.0%
% total impurities [4, 19]: 0.27%
% potency [4, 20]: 100.7%
% total impurities [4, 20]: 0.27%
% potency [4, 21]: 96.9%
% total impurities [4, 21]: 0.27%
% potency ([4]; Initial): 98.5%
% total impurities ([4]; Initial): 0.27%
% potency ([4]; Refrigerated, 1 week): 98.0%
% total impurities ([4]; Refrigerated, 1 week): 0.29%
% potency ([4]; Refrigerated, 2 weeks): 96.5%
% total impurities ([4]; Refrigerated, 2 weeks): 0.27%
% potency ([4]; Refrigerated, 4 weeks): 105.7%
% total impurities ([4]; Refrigerated, 4 weeks): 0.27%
solid state stability ([4]; tested temperature and relative humidity conditions, four weeks of storage): stable under the tested storage conditions
chemical degradation in aqueous slurry [5]: no significant chemical degradation
stability of crystalline form in aqueous slurry (PXRD) [5]: stable in the aqueous slurry
moisture sorption weight gain ([6]; between 5% and 95% relative humidity): 2.8 weight %
moisture sorption weight gain ([6]; between 25% and 75% relative humidity): 0.8 weight %
hygroscopicity ([6]; moisture sorption isotherm at 25° C.): low or non-hygroscopic
hygroscopicity ([7]; listed as Sulfuric acid): low/non-
hygroscopicity ([7]; listed as hemisulfate salt of Compound (I)): low hygroscopicity
chemical stability ([7]; crystalline salt): chemically stable
physical stability ([7]; crystalline salt): physically stable
